# Source: patent publication US20140127228A1 (INDIANA UNIVERSITY SCHOOL OF MEDICINE, priority 2012, published 2014)
# Entries after “also recorded” stand apart in the source; their conditions may differ.
# Columns and labels:
# [1] = tested on: PC-3 bone metastases; assay: PC-3 prostate cancer bone metastases in mice; format: in vivo, mouse; details: 50 mg/kg starting 2 days prior to inoculation
# Excerpt: (§1) These experiments utilize two murine models of prostate cancer bone metastases induced by PC-3 (osteolytic and cachectic; FIGS. 4A-K) or LuCAP23.1 (osteoblastic and not cachectic; FIGS. 5A-B).
# (§2) For all mouse experiments, N=15 for each group of mice for tumors inoculated in the left cardiac ventricle (PC-3) or intratibially (LuCAP23.1) based on power analysis detailed below. Male nude mice are housed in laminar flow isolated hoods with water supplemented with vitamin K and autoclaved mouse chow provided ad libitum. Cells are introduced into mice at 4 wks of age. Animals are anesthetized with ketamine/xylazine and positioned ventral side up.
# Multiple modalities of bone imaging including X-ray and μCT are used to longitudinally monitor the bone lesions and confirmed by histology and quantitative histomorphometry as previously described (Dunn et al., 2009; Guise et al., 1996b; Yin et al., 1999). Muscle mass are followed serially in vivo using the Piximus II system (Wiren et al., 2011) and microCT (Manske et al., 2011).
# [2] = tested on: mouse mammary carcinomas; details: cited from earlier work
# [3] = tested on: RyR1; assay: RyR1 oxidation, nitrosylation and calstabin 1 depletion in EDL (immunoprecipitation/immunoblot); format: in vivo, mouse; details: mice with PC-3 prostate cancer metastatic to bone
# Excerpt: (§3) In embodiment A is shown that body weight is decreased in nude mice inoculated with PC-3 human prostate cancer cells and that osteolytic lesions are present in the tibia and histology of the femur, as shown in X-ray images. In embodiments B and C are shown decreased skeletal muscle cross-sectional area in tumor-bearing mice determined by Micro-CT as described herein. In embodiments D and E are shown decreased body weight (D) and decreased Grip strength (E) in PC-3 tumor bearing mice. […] In embodiment J is shown that RyR1 is oxidized and there is decreased calstabin 1 in the RyR complex from, skeletal muscle (EDL) from mice with metastatic prostate cancer. […] All immunoblots were developed and quantified with the Odyssey system (LI-COR, Inc., Lincoln, Nebr.) using IR labeled anti-mouse and anti-Rabbit IgG (1:10,000 dilution) secondary antibodies. […] Quantification of immunoblots showing the relative nitrotyrosine/SERCA for each group of EDLs tested. *p<0.01 compared to non-cancer controls as analyzed by ANOVA. […]
# Quantification of RyR1 skeletal channel nitrosylation, oxidation and phosphorylation by protein kinase A (PKA) are performed as described (Bellinger et al., 2009; Bellinger et al., 2008b).
# Quantification of depletion of the channel stabilizing subunit calstabin 1 (FKBP12) from skeletal RyR1 by immunoprecipitation techniques are performed as described (Marx et al., 2000). […]
# [4] = tested on: LuCaP 23.1 human prostate cancer osteoblastic xenograft; assay: LuCaP 23.1 osteoblastic prostate cancer xenograft in tibia of nude mice; format: in vivo, mouse
# Excerpt: as §1, §2
# Four-week old, male nude mice were inoculated into the tibia with LuCaP 23.1 human prostate cancer osteoblastic xenograft (n=14-15/group).
# [5] = tested on: EDL muscle of mice with PC-3 prostate cancer bone metastases; assay: EDL muscle specific force production in mice with PC-3 prostate cancer bone metastases; format: in vivo, mouse; details: hypogonadal mice with PC-3 prostate cancer metastatic to bone
# Excerpt: as §3
# Extensor digitorum longus (EDL) muscles are dissected from the hind limbs using micro dissection scissors and forceps. […] To quantify the specific force, the absolute force is normalized to the muscle cross-sectional area, calculated as the muscle weight divided by the length and a muscle density constant of […] as previously described (Yamada et al., 2009).
# [6] = tested on: SERCA; assay: SERCA oxidation in EDL muscle lysates (immunoprecipitation/immunoblot); format: in vivo, mouse; details: prostate cancer mice
# Excerpt: In embodiment A is shown that body weight is decreased in nude mice inoculated with PC-3 human prostate cancer cells and that osteolytic lesions are present in the tibia and histology of the femur, as shown in X-ray images. In embodiments B and C are shown decreased skeletal muscle cross-sectional area in tumor-bearing mice determined by Micro-CT as described herein. In embodiments D and E are shown decreased body weight (D) and decreased Grip strength (E) in PC-3 tumor bearing mice. […] In embodiment J is shown that RyR1 is oxidized and there is decreased calstabin 1 in the RyR complex from, skeletal muscle (EDL) from mice with metastatic prostate cancer. RyR1 was immunoprecipitated from 250 μg of EDL homogenate using an anti-RyR antibody (4 μg 5029 Ab), and the immunoprecipitates were separated on SDS-PAGE gels (6% for RyR, 15% for Calstabin). All immunoblots were developed and quantified with the Odyssey system (LI-COR, Inc., Lincoln, Nebr.) using IR labeled anti-mouse and anti-Rabbit IgG (1:10,000 dilution) secondary antibodies. Immunoblots developed using anti-RyR (clone 34C, 1:5,000), anti-Cys-NO (1:1000, Sigma, St. Louis. MO), anti-DNP (to determine RyR1 oxidation. 1:250), and anticalstabin (1:2500). […] Quantification of immunoblots showing the relative nitrotyrosine/SERCA for each group of EDLs tested. *p<0.01 compared to non-cancer controls as analyzed by ANOVA. […]
# [7] = patients with prostate cancer bone metastases; cited from earlier work
# [8] = tested on: human melanoma cells; assay: Hfg treatment of human melanoma cells; format: cell-based
# Excerpt: (§4) TGFbeta derived from bone fuels melanoma bone metastasis by inducing tumor secretion of pro-metastatic factors that act on bone cells to change the skeletal microenvironment. […] Hfg is active orally and by intraperitoneal injection, and it has completed Phase I clinical trials in cancer patients. It suppresses the phosphorylation and activation of Smad2 and Smad3 by inducting of Smad7. Overexpression of inhibitory Smad7 has been associated with a reduction on invasive capacity in vitro and anchorage-independent growth, and delays subcutaneous tumor growth in nude mice. The present inventors have shown that Smad7 overexpression decreased melanoma bone metastasis, thus is useful for treating and/or preventing muscle weakness and atrophy as well as other muscle related side effects in cancer patients.
# [9] = models of muscular dystrophy; cited from earlier work
# [10] = tested on: 1205Lu melanoma cells; assay: melanoma bone metastasis in nude mice inoculated with 1205Lu melanoma cells; format: in vivo, mouse
# Excerpt: Halofuginone (Hfg) is a synthetic derivative of the plant alkaloid febrifugine, a traditional Chinese herbal medicine. Hfg increases expression of Smad7, an intracellular inhibitor of TGF-beta signaling. […] Hfg has been widely used as a veterinary agent with an excellent safety profile.
# as §4
# [11] = tested on: 1205Lu melanoma cells; details: mouse, in vivo; cited from earlier work
# [12] = 50 or 150 mg/kg/day po from 12 weeks post tumor inoculation
compound,measurement,setting,value
Fc1ccc(Cl)cc1-c1nc(Nc2ccncc2)c2nccnc2n1 [SD-208],"PC-3 bone metastases (X-ray, osteolytic lesion area, survival)",[1],highly effective; also recorded: prevents PC-3 bone metastases
same,tumor growth in vivo,[2],inhibit
same,oxidation/nitrosylation/calstabin 1 depletion of skeletal muscle RyR1,[3],prevented oxidation/nitrosylation/calstabin 1 depletion from RyR1; also recorded: prevented oxidation of RyR1
same,bone formation,[4]; [12],does not increase
same,tumor growth,[4]; [12],does not increase
same,LuCAP23.1 bone metastases,"[4]; mouse, in vivo",not effective
same,muscle (EDL) specific force production,[5],improved muscle specific force production
same,oxidation of SERCA,[6],inhibited oxidation of SERCA
denosumab: inhibitor of bone resorption,skeletal morbidity,[7],reduce skeletal morbidity
O=C(CC1NCCCC1O)Cn1cnc2cc(Br)c(Cl)cc2c1=O (stereo not shown) [Halofuginone],TGFbeta-induced SMAD-driven transcription,[8],inhibited
same,cell apoptosis,[8],increased
same,cell proliferation,[8],inhibited
same,"expression of TGFbeta target genes (PTHrP, CTGF, CXCR4, IL11)",[8],reducing expression
same,phosphorylation of SMAD proteins in response to TGFbeta,[8],inhibited
same,muscle function,[9],improve muscle function
same,osteolysis assessed by radiography,"[10]; mice with established bone metastasis, vs placebo",significantly less osteolysis
same,melanoma metastasis to the brain,"[10]; mouse, in vivo",reduce melanoma metastasis to the brain
same,bone metastasis,"[10]; preventive protocol, nude mice inoculated with 1205Lu melanoma cells",inhibited bone metastasis
same,development and progression of bone metastasis caused by melanoma cells,[11],decreases development and progression of bone metastasis
